Data reported in PubChem BioAssay AID330 (DTP/NCI, 2004).
Several values for one entry are separate records, joined by “and”; a condition that tells them apart may be missing. Identical values can stand only once. Inconclusive results and toxic doses are left out.

Test system: P388 leukemia ip, CD2F1 mice, survival T/C
Experiment: NCI In Vivo Anticancer Drug Screen. Data for tumor model P388 Leukemia (intraperitoneal) in CD2F1 (CDF1) mice
Details: endpoint: median survival time, higher = longer survival
Method in brief: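 Mice carrying the transplanted tumor received test compound or vehicle. Survival was recorded in each group, and the value is the treated-group measurement divided by that of the vehicle-treated control group.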

[1] = dose: 50.0 mg/kg/injection, schedule: Q01DX005 (ip), vehicle: saline with Tween-80
[2] = dose: 100.0 mg/kg/injection, schedule: Q01DX005 (ip), vehicle: saline with Tween-80
[3] = dose: 200.0 mg/kg/injection, schedule: Q01DX005 (ip), vehicle: saline with Tween-80
[4] = dose: 50.0 mg/kg/injection, schedule: Q01DX005 (ip), vehicle: saline
[5] = dose: 100.0 mg/kg/injection, schedule: Q01DX005 (ip), vehicle: saline
[6] = dose: 200.0 mg/kg/injection, schedule: Q01DX005 (ip), vehicle: saline
[7] = dose: 50.0 mg/kg/injection, schedule: Q01DX009 (ip), vehicle: saline with Tween-80
[8] = dose: 100.0 mg/kg/injection, schedule: Q01DX009 (ip), vehicle: saline with Tween-80
[9] = dose: 100.0 mg/kg/injection, schedule: Q01DX009 (ip), vehicle: Klucel (hydroxypropylcellulose) (HPC)
[10] = dose: 60.0 mg/kg/injection, schedule: Q01DX005 (ip), vehicle: saline with Tween-80
[11] = dose: 120.0 mg/kg/injection, schedule: Q01DX005 (ip), vehicle: saline with Tween-80
[12] = dose: 50.0 mg/kg/injection, schedule: Q01DX009 (ip), vehicle: Klucel (hydroxypropylcellulose) (HPC)
[13] = dose: 75.0 mg/kg/injection, schedule: Q01DX009 (ip), vehicle: saline with Tween-80
[14] = dose: 200.0 mg/kg/injection, schedule: Q01DX009 (ip), vehicle: Klucel (hydroxypropylcellulose) (HPC)

SMILES: CCOC1=CCCCC1
- T/C (dose: 100.0 mg/kg/injection, schedule: Q04DX003 (ip), vehicle: alcohol): 100 % of control
- T/C (dose: 200.0 mg/kg/injection, schedule: Q04DX003 (ip), vehicle: alcohol): 100 % of control
- T/C (dose: 400.0 mg/kg/injection, schedule: Q04DX003 (ip), vehicle: alcohol): 104 % of control

SMILES: CC(=O)OCC(OC(C)=O)C(OC(C)=O)C(OC1OC(COC(C)=O)C(OC(C)=O)C(OC(C)=O)C1OC(C)=O)C(COC(C)=O)OC(C)=O (stereo not drawn)
- T/C (dose: 50.0 mg/kg/injection, schedule: Q01DX005 (ip), vehicle: suspension in saline): 97 % of control
- T/C (dose: 100.0 mg/kg/injection, schedule: Q01DX005 (ip), vehicle: suspension in saline): 91 % of control
- T/C (dose: 200.0 mg/kg/injection, schedule: Q01DX005 (ip), vehicle: suspension in saline): 99 % of control

SMILES: Nc1nc(-c2ccc(Cl)cc2)nc2sc3c(c12)CCCCC3
- T/C [1]: 90 % of control
- T/C [2]: 90 % of control
- T/C [3]: 95 % of control

SMILES: CCC[CH2][Sn]([CH2]CCC)([CH2]CCC)[CH2]CC[N+](C)(C)C.CS(=O)(=O)[O-]
- T/C (dose: 0.78 mg/kg/injection, schedule: Q01DX009 (ip), vehicle: saline): 100 % of control
- T/C (dose: 1.56 mg/kg/injection, schedule: Q01DX009 (ip), vehicle: saline): 101 % of control
- T/C (dose: 3.12 mg/kg/injection, schedule: Q01DX009 (ip), vehicle: saline): 98 % of control

SMILES: O=C(O)CC(C(=O)O)S(=O)CP(=O)(O)O (stereo not drawn)
- T/C [4]: 95 % of control
- T/C [5]: 103 % of control
- T/C [6]: 110 % of control

SMILES: CC1(C)CCCc2c(-c3ccccc3)cc3c4ccccc4cc[n+]3c21
- T/C [7]: 89 % of control
- T/C [8]: 88 % of control

SMILES: CSc1cccc(NC(=O)OCCOc2ccc(-c3ccccc3)cc2)c1
- T/C [9]: 87 % of control

SMILES: ClCC[N+]12CC[N+](CCCl)(CC1)C2.[Cl][Pt]([Cl])([Cl])[Cl]
- T/C (dose: 6.25 mg/kg/injection, schedule: Q01DX009 (ip), vehicle: distilled water + Tween-80): 100 % of control
- T/C (dose: 25.0 mg/kg/injection, schedule: Q01DX009 (ip), vehicle: distilled water + Tween-80): 169 % of control

SMILES: CC(=O)Nc1ccc(/C=C2/C(=O)ON=C2C)cc1
- T/C [10]: 116 % of control
- T/C [11]: 116 % of control

SMILES: CC(C)(C)C1=NC=CNC(C(F)(F)F)=C1
- T/C (dose: 12.5 mg/kg/injection, schedule: Q01DX009 (ip), vehicle: Klucel (hydroxypropylcellulose) (HPC)): 94 % of control
- T/C (dose: 25.0 mg/kg/injection, schedule: Q01DX009 (ip), vehicle: Klucel (hydroxypropylcellulose) (HPC)): 100 % of control
- T/C [12]: 94 % of control

SMILES: CCOC(=O)C/C(C)=N\NC(=O)c1ccncc1
- T/C (dose: 37.0 mg/kg/injection, schedule: Q01DX009 (ip), vehicle: saline with Tween-80): 97 % of control
- T/C [13]: 105 % of control
- T/C (dose: 150.0 mg/kg/injection, schedule: Q01DX009 (ip), vehicle: saline with Tween-80): 106 % of control

SMILES: CCS/C(C#N)=C/c1ccccc1Cl
- T/C [7]: 103 % of control
- T/C [8]: 112 % of control

SMILES: CCCCCCCCOc1ccc(/C=C/C(C)=N/NC(N)=NC)cc1OC
- T/C (dose: 7.5 mg/kg/injection, schedule: Q01DX005 (ip), vehicle: saline with Tween-80): 111 % of control
- T/C (dose: 15.0 mg/kg/injection, schedule: Q01DX005 (ip), vehicle: saline with Tween-80): 95 % of control
- T/C (dose: 30.0 mg/kg/injection, schedule: Q01DX005 (ip), vehicle: saline with Tween-80): 102 % of control

SMILES: [Cl][Sn]1([Cl])[CH2]CC[CH2][Sn]([Cl])([Cl])[CH2]CC[CH2]1
- T/C (dose: 25.0 mg/kg/injection, schedule: Q01DX001 (ip), vehicle: saline): 107 % of control
- T/C (dose: 50.0 mg/kg/injection, schedule: Q01DX001 (ip), vehicle: saline): 107 % of control
- T/C (dose: 100.0 mg/kg/injection, schedule: Q01DX001 (ip), vehicle: saline): 120 % of control
- T/C (dose: 100.0 mg/kg/injection, schedule: Q04DX002 (ip), vehicle: saline): 109 % of control

SMILES: CN(C)c1nnnn1-c1ccccc1
- T/C [10]: 104 % of control
- T/C [11]: 107 % of control
- T/C (dose: 240.0 mg/kg/injection, schedule: Q01DX005 (ip), vehicle: saline with Tween-80): 107 % of control

SMILES: CCOC(=O)Nc1cc(NC/C(CN(C)c2ccc(OC)cc2)=N/O)c([N+](=O)[O-])c(N)n1
- T/C [1]: 86 % of control
- T/C [2]: 86 % of control

SMILES: COc1cccc2c1C(=O)c1c(O)c3c(c(O)c1C2=O)C[C@@](O)(/C=N\O)C[C@@H]3OC1CC(N)C(O)C(C)O1 (stereo partly drawn)
- T/C (dose: 3.13 mg/kg/injection, schedule: Q04DX003 (ip), vehicle: water): 109 % of control
- T/C (dose: 6.25 mg/kg/injection, schedule: Q04DX003 (ip), vehicle: water): 118 % of control
- T/C (dose: 12.5 mg/kg/injection, schedule: Q04DX003 (ip), vehicle: water): 116 % of control
- T/C (dose: 25.0 mg/kg/injection, schedule: Q04DX003 (ip), vehicle: water): 111 % of control
- T/C (dose: 50.0 mg/kg/injection, schedule: Q04DX003 (ip), vehicle: water): 163 % of control

SMILES: CC(=Nc1ccc2c(c1)C(=O)c1ccc(N=C(C)N(C)C)cc1C2=O)N(C)C
- T/C (dose: 50.0 mg/kg/injection, schedule: Q01DX005 (ip), vehicle: Klucel (hydroxypropylcellulose) (HPC)): 100 % of control
- T/C (dose: 100.0 mg/kg/injection, schedule: Q01DX005 (ip), vehicle: Klucel (hydroxypropylcellulose) (HPC)): 109 % of control
- T/C (dose: 200.0 mg/kg/injection, schedule: Q01DX005 (ip), vehicle: Klucel (hydroxypropylcellulose) (HPC)): 100 % of control

SMILES: Nc1nc2c([nH]c(=O)n2C2OC(CO)C(O)C2O)c(=O)[nH]1 (stereo not drawn)
- T/C [4]: 109 % of control
- T/C [5]: 110 % of control
- T/C [6]: 112 % of control

SMILES: CNC(=O)OCc1c(COC(=O)NC)c(-c2ccc(-c3ccccc3)cc2)n(C)c1C
- T/C (dose: 2.5 mg/kg/injection, schedule: Q01DX009 (ip), vehicle: distilled water + Tween-80): 154 % of control
- T/C (dose: 5.0 mg/kg/injection, schedule: Q01DX009 (ip), vehicle: distilled water + Tween-80): 152 % of control
- T/C (dose: 10.0 mg/kg/injection, schedule: Q01DX009 (ip), vehicle: distilled water + Tween-80): 151 % of control
- T/C (dose: 15.0 mg/kg/injection, schedule: Q01DX009 (ip), vehicle: distilled water + Tween-80): 153 % of control
- T/C (dose: 20.0 mg/kg/injection, schedule: Q01DX009 (ip), vehicle: distilled water + Tween-80): 94 % of control

SMILES: COc1ccc(-c2cc(C(=O)Nc3cc(Cl)cc(Cl)c3)c3ccccc3n2)cc1
- T/C [1]: 91 % of control
- T/C [2]: 93 % of control
- T/C [3]: 91 % of control

SMILES: O=S(=O)(CCl)OCCCl
- T/C (dose: 25.0 mg/kg/injection, schedule: Q01DX009 (ip), vehicle: saline with Tween-80): 120 % of control
- T/C [13]: 170 % of control
- T/C [8]: 218 % of control

SMILES: CN(C)CCC[N+](C)(C)Cc1ccc(C[N+](C)(C)CCC[N+](C)(C)Cc2ccc(CCl)cc2)cc1
- T/C (dose: 12.5 mg/kg/injection, schedule: Q01DX009 (ip), vehicle: saline): 106 % of control
- T/C (dose: 25.0 mg/kg/injection, schedule: Q01DX009 (ip), vehicle: saline): 92 % of control

SMILES: Nc1cc(Cl)ccc1-c1ccccc1
- T/C [9]: 95 % of control
- T/C [14]: 92 % of control

SMILES: CC(C)NCC(O)CC(c1ccccc1)c1ccccc1 (stereo not drawn)
- T/C [7]: 95 % of control
- T/C [8]: 111 % of control

SMILES: O=C1CCCCC1O (stereo not drawn)
- T/C (dose: 50.0 mg/kg/injection, schedule: Q01DX009 (ip), vehicle: saline): 104 % of control and 106 % of control
- T/C (dose: 100.0 mg/kg/injection, schedule: Q01DX009 (ip), vehicle: saline): 100 % of control and 103 % of control
- T/C (dose: 200.0 mg/kg/injection, schedule: Q01DX009 (ip), vehicle: saline): 110 % of control and 97 % of control
- T/C (dose: 400.0 mg/kg/injection, schedule: Q01DX009 (ip), vehicle: saline): 88 % of control and 95 % of control

SMILES: O=C(c1ccccc1)C1OC1C(=O)c1ccccc1 (stereo not drawn)
- T/C [12]: 95 % of control
- T/C [9]: 100 % of control
- T/C [14]: 102 % of control

SMILES: CC(O)C(=O)O (stereo not drawn)
- T/C (dose: 0.06 % in 0.5 ml injection vol, schedule: Q01DX009 (ip), vehicle: water): 98 % of control and 100 % of control
- T/C (dose: 0.12 % in 0.5 ml injection vol, schedule: Q01DX009 (ip), vehicle: water): 107 % of control and 95 % of control
- T/C (dose: 0.25 % in 0.5 ml injection vol, schedule: Q01DX009 (ip), vehicle: water): 93 % of control
- T/C (dose: 0.5 % in 0.5 ml injection vol, schedule: Q01DX009 (ip), vehicle: water): 99 % of control and 100 % of control
- T/C (dose: 4.0 % in 0.5 ml injection vol, schedule: Q01DX009 (ip), vehicle: water): 100 % of control
- T/C (dose: 8.0 % in 0.5 ml injection vol, schedule: Q01DX009 (ip), vehicle: water): 99 % of control and 100 % of control
